ChEMBL document CHEMBL4477227, “Synthesis and antibacterial evaluation of macrocyclic diarylheptanoid derivatives” (Bioorg Med Chem Lett, 2016)
Converted amounts (≈) assume the structure as drawn.

What was measured:
Bacillus anthracis = experiment: Antibacterial activity against Bacillus anthracis Sterne 34F2 by microbroth dilution method; type: functional; conditions: Bacillus anthracis, Sterne 34F2; read-out: MIC
Streptococcus pyogenes = experiment: Antibacterial activity against Streptococcus pyogenes ATCC 700294 by microbroth dilution method; type: functional; conditions: Streptococcus pyogenes, ATCC 700294; read-out: MIC
Proteus mirabilis = experiment: Antibacterial activity against Proteus mirabilis ATCC 25933 by microbroth dilution method; type: functional
Vero = experiment: Cytotoxicity against African green monkey Vero cells assessed as reduction in cell viability after 72 hrs by CellTiterGlo assay; type: cell-based; conditions: Chlorocebus sabaeus
Acinetobacter baumannii = experiment: Antibacterial activity against Acinetobacter baumannii ATCC 19606 by microbroth dilution method; type: functional, ATCC 19606 = CIP 70.34 = JCM 6841; conditions: Acinetobacter baumannii, ATCC 19606 = CIP 70.34 = JCM 6841; read-out: MIC
Staphylococcus aureus [1] = experiment: Antibacterial activity against methicillin-resistant Staphylococcus aureus NRS70 by microbroth dilution method; type: functional; conditions: Staphylococcus aureus, NRS70; read-out: MIC
Escherichia coli [2] = experiment: Antibacterial activity against Escherichia coli harboring TolC deletion mutant by microbroth dilution method; type: functional; conditions: Escherichia coli; read-out: MIC
Staphylococcus aureus [3] = experiment: Antibacterial activity against methicillin-sensitive Staphylococcus aureus ATCC 29213 by microbroth dilution method; type: functional; conditions: Staphylococcus aureus, ATCC 29213; read-out: MIC
Streptococcus pneumoniae = experiment: Antibacterial activity against Streptococcus pneumoniae R6 by microbroth dilution method; type: functional; conditions: Streptococcus pneumoniae, R6; read-out: MIC
Klebsiella pneumoniae = experiment: Antibacterial activity against Klebsiella pneumoniae ATCC 33495 by microbroth dilution method; type: functional
Bacillus subtilis = experiment: Antibacterial activity against Bacillus subtilis ATCC 23857 by microbroth dilution method; type: functional; conditions: Bacillus subtilis, ATCC 23857; read-out: MIC
Burkholderia cepacia = experiment: Antibacterial activity against Burkholderia cepacia ATCC 25416 by microbroth dilution method; type: functional
Enterococcus faecalis = experiment: Antibacterial activity against Enterococcus faecalis ATCC 33186 by microbroth dilution method; type: functional; conditions: Enterococcus faecalis, ATCC 33186; read-out: MIC
[4] = tested on: Mycobacterium tuberculosis; experiment: Antitubercular activity against Mycobacterium tuberculosis H37Rv by microbroth dilution method; type: functional; conditions: Mycobacterium tuberculosis, H37Rv; read-out: MIC
Escherichia coli [5] = experiment: Antibacterial activity against Escherichia coli K-12 by microbroth dilution method; type: functional
Proteus vulgaris = experiment: Antibacterial activity against Proteus vulgaris ATCC 33420 by microbroth dilution method; type: functional
Pseudomonas aeruginosa = experiment: Antibacterial activity against Pseudomonas aeruginosa PAO1 by microbroth dilution method; type: functional
J774.1 = experiment: Inhibition of LPS-induced NO production in mouse J774.1 cells after 24 by Griess assay; type: functional, cell-based

Compound	MIC (Bacillus anthracis) [mg/L]	MIC (Streptococcus pyogenes) [mg/L]	MIC (Proteus mirabilis) [mg/L]	IC50 (Vero) [mg/L]	MIC (Acinetobacter baumannii) [mg/L]	MIC (Staphylococcus aureus [1]) [mg/L]	MIC (Escherichia coli [2]) [mg/L]	MIC (Staphylococcus aureus [3]) [mg/L]	MIC (Streptococcus pneumoniae) [mg/L]	MIC (Klebsiella pneumoniae) [mg/L]	MIC (Bacillus subtilis) [mg/L]	MIC (Burkholderia cepacia) [mg/L]	MIC (Enterococcus faecalis) [mg/L]	MIC [4] [mg/L]	MIC (Escherichia coli [5]) [mg/L]	MIC (Proteus vulgaris) [mg/L]	MIC (Pseudomonas aeruginosa) [mg/L]	IC50 (J774.1) [µM]
COc1ccc2cc1Oc1cc(ccc1OC)CCC(NCCc1ccc(Br)cc1)CCCC2 (stereo unspecified)	12.5 (≈ 23.8 µM)	50 (≈ 95.3 µM)	> 100	6.9 (≈ 13.2 µM)	50 (≈ 95.3 µM)	12.5 (≈ 23.8 µM)	12.5 (≈ 23.8 µM)	12.5 (≈ 23.8 µM)	50 (≈ 95.3 µM)	> 100	6.25 (≈ 11.9 µM)	> 100	12.5 (≈ 23.8 µM)	25 (≈ 47.7 µM)	> 100	> 100	> 100	
COc1ccc2cc1Oc1cc(ccc1OC)CCC(NCCc1ccc3ccccc3c1)CCCC2 (stereo unspecified)	12.5 (≈ 25.2 µM)	12.5 (≈ 25.2 µM)	> 100	7 (≈ 14.1 µM)	> 100	6.25 (≈ 12.6 µM)	6.25 (≈ 12.6 µM)	12.5 (≈ 25.2 µM)	25 (≈ 50.4 µM)	> 100	6.25 (≈ 12.6 µM)	> 100	12.5 (≈ 25.2 µM)	25 (≈ 50.4 µM)	> 100	> 100	> 100	
COc1ccc2cc1Oc1cc(ccc1OC)CCC(NCCc1ccc(F)cc1)CCCC2 (stereo unspecified)	25 (≈ 53.9 µM)	25 (≈ 53.9 µM)	> 100	7.3 (≈ 15.7 µM)	25 (≈ 53.9 µM)	12.5 (≈ 27 µM)	12.5 (≈ 27 µM)	25 (≈ 53.9 µM)	50 (≈ 108 µM)	> 100	12.5 (≈ 27 µM)	> 100	25 (≈ 53.9 µM)	25 (≈ 53.9 µM)	> 100	> 100	> 100	
COc1ccc2cc1Oc1ccc(cc1)CCC(NCCc1ccc(F)cc1)CCCC2 (stereo unspecified)	12.5 (≈ 28.8 µM)	25 (≈ 57.7 µM)	> 100	3.7 (≈ 8.53 µM)	50 (≈ 115 µM)	6.25 (≈ 14.4 µM)	6.25 (≈ 14.4 µM)	12.5 (≈ 28.8 µM)	50 (≈ 115 µM)	> 100	6.25 (≈ 14.4 µM)	> 100	12.5 (≈ 28.8 µM)	12.5 (≈ 28.8 µM)	> 100	> 100	> 100	
O=C1CCCCc2ccc(OC(=O)c3ccccc3)c(c2)Oc2ccc(cc2)CC1																		13
Oc1ccc2cc1Oc1cc(ccc1O)CCC(NCCc1ccccc1)CCCC2 (stereo unspecified)	50 (≈ 120 µM)	50 (≈ 120 µM)	> 100	11.1 (≈ 26.6 µM)	50 (≈ 120 µM)	50 (≈ 120 µM)	25 (≈ 59.9 µM)	> 100	50 (≈ 120 µM)	> 100	25 (≈ 59.9 µM)	> 100	50 (≈ 120 µM)	25 (≈ 59.9 µM)	100 (≈ 239 µM)	> 100	> 100	
COc1ccc2cc1Oc1cc(ccc1OC)CCC(NCCc1ccc(Cl)cc1)CCCC2 (stereo unspecified)	12.5 (≈ 26 µM)	12.5 (≈ 26 µM)	> 100	6.8 (≈ 14.2 µM)	25 (≈ 52.1 µM)	12.5 (≈ 26 µM)	6.25 (≈ 13 µM)	12.5 (≈ 26 µM)	25 (≈ 52.1 µM)	> 100	6.25 (≈ 13 µM)	> 100	12.5 (≈ 26 µM)	25 (≈ 52.1 µM)	> 100	> 100	> 100	
COc1ccc2cc1Oc1cc(ccc1OC)CCC(NC/C=C(\C)CCC=C(C)C)CCCC2 (stereo unspecified)	12.5 (≈ 26.2 µM)	25 (≈ 52.3 µM)	> 100	5.6 (≈ 11.7 µM)	25 (≈ 52.3 µM)	6.25 (≈ 13.1 µM)	6.25 (≈ 13.1 µM)	12.5 (≈ 26.2 µM)	50 (≈ 105 µM)	> 100	3.12 (≈ 6.54 µM)	> 100	12.5 (≈ 26.2 µM)	12.5 (≈ 26.2 µM)	50 (≈ 105 µM)	> 100	> 100	
COc1ccc2cc1Oc1cc(ccc1OC)CCC(Nc1ccc(Cl)cc1)CCCC2 (stereo unspecified)	> 100	> 100	> 100		> 100	> 100	> 100	> 100	> 100	> 100	> 100	> 100	> 100	> 100	> 100	> 100	> 100	
